According to ChEMBL document CHEMBL3232845 (Bioorg Med Chem Lett, 2014):

How the values were obtained:
[1] = molecular target: Cyclin-dependent kinase 5/CDK5 activator 1 (Homo sapiens) (UniProt Q00535+Q15078); assay: Inhibition of human CDK5/p35 assessed as enzyme activity at 1 uM relative to control; type: protein-complex assay; design: scale not given: the % may be the effect or the level left
[2] = molecular target: Mitogen-activated protein kinase 12 (Homo sapiens) (UniProt P53778); assay: Inhibition of human p38gamma assessed as enzyme activity at 1 uM relative to control; design: scale not given: the % may be the effect or the level left
[3] = Clearance in mouse at 2.5 mg/kg, iv; type: ADME, organism-based; design: dose 2.5 mg/kg, route intravenous; settings: in vivo
[4] = molecular target: Calcium/calmodulin-dependent protein kinase type 1D (Homo sapiens) (UniProt Q8IU85); assay: Inhibition of human CAMK1d assessed as enzyme activity at 1 uM relative to control; design: scale not given: the % may be the effect or the level left
[5] = molecular target: Tyrosine-protein kinase SYK (Homo sapiens) (UniProt P43405); assay: Inhibition of human Syk assessed as enzyme activity at 1 uM relative to control; design: scale not given: the % may be the effect or the level left
[6] = molecular target: Rho-associated protein kinase 2 (Homo sapiens) (UniProt O75116); assay: Inhibition of human ROCK-2 assessed as enzyme activity at 1 uM relative to control; design: scale not given: the % may be the effect or the level left
[7] = AUC in mouse at 30 mg/kg, po; type: ADME, organism-based; design: dose 30 mg/kg, route oral; settings: plasma
[8] = molecular target: Serine/threonine-protein kinase Sgk2 (Homo sapiens) (UniProt Q9HBY8); assay: Inhibition of human SGK2 assessed as enzyme activity at 1 uM relative to control; design: scale not given: the % may be the effect or the level left
[9] = molecular target: Serine/threonine-protein kinase Sgk3 (Homo sapiens) (UniProt Q96BR1); assay: Inhibition of human SGK3 assessed as enzyme activity at 1 uM relative to control; design: scale not given: the % may be the effect or the level left
[10] = molecular target: BDNF/NT-3 growth factors receptor (Homo sapiens) (UniProt Q16620); assay: Inhibition of human TrkB assessed as enzyme activity at 1 uM relative to control; design: scale not given: the % may be the effect or the level left
[11] = molecular target: Receptor tyrosine-protein kinase erbB-4 (Homo sapiens) (UniProt Q15303); assay: Inhibition of human ErbB4 assessed as enzyme activity at 1 uM relative to control; design: scale not given: the % may be the effect or the level left
[12] = molecular target: Serine/threonine-protein kinase B-raf (Homo sapiens, UniProt P15056, V600E); assay: Inhibition of full-length B-Raf V600E mutant (unknown origin)
[13] = molecular target: Insulin-like growth factor 1 receptor (Homo sapiens) (UniProt P08069); assay: Inhibition of human activated IGF-1R assessed as enzyme activity at 1 uM relative to control; design: scale not given: the % may be the effect or the level left
[14] = molecular target: Homeodomain-interacting protein kinase 1 (Homo sapiens) (UniProt Q86Z02); assay: Inhibition of human HIPK1 assessed as enzyme activity at 1 uM relative to control; design: scale not given: the % may be the effect or the level left
[15] = molecular target: Myotonin-protein kinase (Homo sapiens) (UniProt Q09013); assay: Inhibition of human DMPK assessed as enzyme activity at 1 uM relative to control; design: scale not given: the % may be the effect or the level left
[16] = molecular target: Insulin-like growth factor 1 receptor (Homo sapiens) (UniProt P08069); assay: Inhibition of human IGF-1R assessed as enzyme activity at 1 uM relative to control; design: scale not given: the % may be the effect or the level left
[17] = molecular target: cAMP-dependent protein kinase catalytic subunit alpha (Homo sapiens) (UniProt P17612); assay: Inhibition of human PKAC-alpha assessed as enzyme activity at 1 uM relative to control; design: scale not given: the % may be the effect or the level left
[18] = molecular target: Ephrin type-B receptor 2 (Homo sapiens) (UniProt P29323); assay: Inhibition of human EphB2 assessed as enzyme activity at 1 uM relative to control; design: scale not given: the % may be the effect or the level left
[19] = molecular target: Calcium/calmodulin-dependent protein kinase type II subunit beta (Homo sapiens) (UniProt Q13554); assay: Inhibition of human CAMK2b assessed as enzyme activity at 1 uM relative to control; design: scale not given: the % may be the effect or the level left
[20] = molecular target: Casein kinase I isoform delta (Homo sapiens) (UniProt P48730); assay: Inhibition of human CK1delta assessed as enzyme activity at 1 uM relative to control; design: scale not given: the % may be the effect or the level left
[21] = molecular target: Serine/threonine-protein kinase mTOR (Homo sapiens) (UniProt P42345); assay: Inhibition of human mTOR assessed as enzyme activity at 1 uM relative to control; design: scale not given: the % may be the effect or the level left
[22] = molecular target: Serine/threonine-protein kinase Nek11 (Homo sapiens) (UniProt Q8NG66); assay: Inhibition of human NEK11 assessed as enzyme activity at 1 uM relative to control; design: scale not given: the % may be the effect or the level left
[23] = molecular target: Insulin receptor (Homo sapiens) (UniProt P06213); assay: Inhibition of human IR assessed as enzyme activity at 1 uM relative to control; design: scale not given: the % may be the effect or the level left
[24] = molecular target: High affinity nerve growth factor receptor (Homo sapiens) (UniProt P04629); assay: Inhibition of human TrkA assessed as enzyme activity at 1 uM relative to control; design: scale not given: the % may be the effect or the level left
[25] = molecular target: Protein-tyrosine kinase 2-beta (Homo sapiens) (UniProt Q14289); assay: Inhibition of human FAK2 assessed as enzyme activity at 1 uM relative to control; design: scale not given: the % may be the effect or the level left
[26] = molecular target: Serine/threonine-protein kinase WNK3 (Homo sapiens) (UniProt Q9BYP7); assay: Inhibition of human WNK3 assessed as enzyme activity at 1 uM relative to control; design: scale not given: the % may be the effect or the level left
[27] = molecular target: cGMP-dependent protein kinase 1 (Homo sapiens) (UniProt Q13976); assay: Inhibition of human PRKG1alpha assessed as enzyme activity at 1 uM relative to control; design: scale not given: the % may be the effect or the level left
[28] = molecular target: Muscle, skeletal receptor tyrosine-protein kinase (Homo sapiens) (UniProt O15146); assay: Inhibition of human MuSK assessed as enzyme activity at 1 uM relative to control; design: scale not given: the % may be the effect or the level left
[29] = molecular target: Calcium/calmodulin-dependent protein kinase type II subunit gamma (Homo sapiens) (UniProt Q13555); assay: Inhibition of human CAMK2g assessed as enzyme activity at 1 uM relative to control; design: scale not given: the % may be the effect or the level left
[30] = molecular target: Serine/threonine-protein kinase TAO1 (Homo sapiens) (UniProt Q7L7X3); assay: Inhibition of human TAO1 assessed as enzyme activity at 1 uM relative to control; design: scale not given: the % may be the effect or the level left
[31] = molecular target: Ephrin type-B receptor 3 (Homo sapiens) (UniProt P54753); assay: Inhibition of human EphB3 assessed as enzyme activity at 1 uM relative to control; design: scale not given: the % may be the effect or the level left
[32] = molecular target: Tyrosine-protein kinase Yes (Homo sapiens) (UniProt P07947); assay: Inhibition of human Yes assessed as enzyme activity at 1 uM relative to control; design: scale not given: the % may be the effect or the level left
[33] = molecular target: MAP kinase-activated protein kinase 2 (Homo sapiens) (UniProt P49137); assay: Inhibition of human MAPKAP-K2 assessed as enzyme activity at 1 uM relative to control; design: scale not given: the % may be the effect or the level left
[34] = molecular target: CDK3/Cyclin E (Homo sapiens) (UniProt P24864+Q00526); assay: Inhibition of human CDK3/cyclinE assessed as enzyme activity at 1 uM relative to control; type: protein-complex assay; design: scale not given: the % may be the effect or the level left
[35] = molecular target: Ribosomal protein S6 kinase beta-1 (Homo sapiens) (UniProt P23443); assay: Inhibition of human p70S6K assessed as enzyme activity at 1 uM relative to control; design: scale not given: the % may be the effect or the level left
[36] = molecular target: Protein kinase C epsilon type (Homo sapiens) (UniProt Q02156); assay: Inhibition of human PKCepsilon assessed as enzyme activity at 1 uM relative to control; design: scale not given: the % may be the effect or the level left
[37] = molecular target: TAK1/TAB1 (Homo sapiens) (UniProt Q15750+O43318); assay: Inhibition of human TAK1-TAB1 assessed as enzyme activity at 1 uM relative to control; type: protein-complex assay; design: scale not given: the % may be the effect or the level left
[38] = molecular target: Casein kinase I isoform gamma-3 (Homo sapiens) (UniProt Q9Y6M4); assay: Inhibition of human CK1gamma3 assessed as enzyme activity at 1 uM relative to control; design: scale not given: the % may be the effect or the level left
[39] = Oral bioavailability in mouse at 30 mg/kg; type: ADME, organism-based; settings: in vivo
[40] = molecular target: Serine/threonine-protein kinase PLK1 (Homo sapiens) (UniProt P53350); assay: Inhibition of human Plk1 assessed as enzyme activity at 1 uM relative to control; design: scale not given: the % may be the effect or the level left

Chain of Insulin-like growth factor 1 receptor (Homo sapiens) (P08069 31-736 limits assumed): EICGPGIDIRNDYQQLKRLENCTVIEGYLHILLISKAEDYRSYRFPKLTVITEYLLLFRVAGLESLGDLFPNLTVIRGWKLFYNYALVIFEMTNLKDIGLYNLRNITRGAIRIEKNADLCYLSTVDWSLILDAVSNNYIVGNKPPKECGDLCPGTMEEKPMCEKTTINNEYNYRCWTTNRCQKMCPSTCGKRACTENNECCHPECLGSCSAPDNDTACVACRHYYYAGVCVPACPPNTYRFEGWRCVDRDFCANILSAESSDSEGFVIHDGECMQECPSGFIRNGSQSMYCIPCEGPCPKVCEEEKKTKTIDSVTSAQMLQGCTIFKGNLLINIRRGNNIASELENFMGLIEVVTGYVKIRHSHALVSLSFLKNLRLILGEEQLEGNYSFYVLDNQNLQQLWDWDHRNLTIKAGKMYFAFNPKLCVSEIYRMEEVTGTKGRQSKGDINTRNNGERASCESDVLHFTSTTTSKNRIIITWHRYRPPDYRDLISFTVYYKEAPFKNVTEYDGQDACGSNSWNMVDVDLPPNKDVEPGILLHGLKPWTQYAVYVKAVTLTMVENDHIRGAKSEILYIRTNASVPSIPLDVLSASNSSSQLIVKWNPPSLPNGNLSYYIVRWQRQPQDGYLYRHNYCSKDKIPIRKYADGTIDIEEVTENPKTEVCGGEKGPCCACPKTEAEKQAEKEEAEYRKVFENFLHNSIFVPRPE
Chain of Insulin-like growth factor 1 receptor (Homo sapiens) (P08069 741-1367 limits assumed): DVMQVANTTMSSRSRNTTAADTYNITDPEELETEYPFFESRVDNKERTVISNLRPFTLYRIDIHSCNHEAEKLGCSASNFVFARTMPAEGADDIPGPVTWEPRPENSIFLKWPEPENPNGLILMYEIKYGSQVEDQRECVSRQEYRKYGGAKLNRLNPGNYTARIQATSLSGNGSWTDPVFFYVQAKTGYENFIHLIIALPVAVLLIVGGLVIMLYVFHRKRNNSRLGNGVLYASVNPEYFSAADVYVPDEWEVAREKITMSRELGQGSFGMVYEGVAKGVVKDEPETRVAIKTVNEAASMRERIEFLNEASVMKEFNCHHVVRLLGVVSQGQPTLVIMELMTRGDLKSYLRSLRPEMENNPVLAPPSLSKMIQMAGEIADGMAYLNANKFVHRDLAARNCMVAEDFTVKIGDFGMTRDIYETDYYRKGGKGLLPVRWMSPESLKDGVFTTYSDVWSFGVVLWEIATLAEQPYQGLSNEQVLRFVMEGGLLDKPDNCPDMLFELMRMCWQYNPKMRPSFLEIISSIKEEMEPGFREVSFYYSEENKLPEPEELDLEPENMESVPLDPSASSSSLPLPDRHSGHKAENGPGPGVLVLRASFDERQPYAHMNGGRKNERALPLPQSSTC
Chain of Serine/threonine-protein kinase Nek11 (Homo sapiens) (Q8NG66 whole entry): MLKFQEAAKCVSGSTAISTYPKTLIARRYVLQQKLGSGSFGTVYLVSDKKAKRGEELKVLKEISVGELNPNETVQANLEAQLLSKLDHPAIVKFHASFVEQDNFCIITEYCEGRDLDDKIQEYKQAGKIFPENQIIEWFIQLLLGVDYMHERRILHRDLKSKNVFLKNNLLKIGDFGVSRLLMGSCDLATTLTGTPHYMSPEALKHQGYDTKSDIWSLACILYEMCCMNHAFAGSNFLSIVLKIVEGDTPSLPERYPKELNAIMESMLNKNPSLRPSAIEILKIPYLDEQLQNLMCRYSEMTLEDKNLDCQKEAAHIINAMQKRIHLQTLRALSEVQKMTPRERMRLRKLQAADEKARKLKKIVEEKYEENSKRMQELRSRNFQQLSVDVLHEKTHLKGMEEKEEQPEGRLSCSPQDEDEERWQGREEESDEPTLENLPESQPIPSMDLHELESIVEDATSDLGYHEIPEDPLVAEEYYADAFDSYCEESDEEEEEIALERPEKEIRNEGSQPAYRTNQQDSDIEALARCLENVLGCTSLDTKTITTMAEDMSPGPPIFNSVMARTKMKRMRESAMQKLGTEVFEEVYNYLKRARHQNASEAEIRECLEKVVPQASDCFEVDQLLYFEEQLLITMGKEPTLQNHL
Chain of Insulin receptor (Homo sapiens) (P06213 28-758 limits assumed): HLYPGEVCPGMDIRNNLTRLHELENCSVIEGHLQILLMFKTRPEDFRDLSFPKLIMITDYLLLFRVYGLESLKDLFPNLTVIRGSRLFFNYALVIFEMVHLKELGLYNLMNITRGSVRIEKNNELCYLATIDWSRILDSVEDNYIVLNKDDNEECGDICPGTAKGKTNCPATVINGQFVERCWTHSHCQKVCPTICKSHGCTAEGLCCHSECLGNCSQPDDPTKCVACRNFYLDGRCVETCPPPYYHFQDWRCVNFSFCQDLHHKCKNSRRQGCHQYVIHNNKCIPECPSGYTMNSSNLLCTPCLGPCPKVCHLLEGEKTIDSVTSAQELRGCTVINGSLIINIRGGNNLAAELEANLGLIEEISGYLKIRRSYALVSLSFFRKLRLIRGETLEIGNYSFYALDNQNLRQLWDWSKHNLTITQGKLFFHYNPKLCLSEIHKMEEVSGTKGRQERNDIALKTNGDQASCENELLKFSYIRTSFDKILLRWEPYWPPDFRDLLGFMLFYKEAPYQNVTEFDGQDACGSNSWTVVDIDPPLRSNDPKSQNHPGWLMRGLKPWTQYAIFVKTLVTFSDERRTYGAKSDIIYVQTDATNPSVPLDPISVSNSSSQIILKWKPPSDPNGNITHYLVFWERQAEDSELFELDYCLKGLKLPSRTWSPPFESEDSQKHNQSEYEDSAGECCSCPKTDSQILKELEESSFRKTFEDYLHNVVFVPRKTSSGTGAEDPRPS
Chain of Insulin receptor (Homo sapiens) (P06213 763-1382 limits assumed): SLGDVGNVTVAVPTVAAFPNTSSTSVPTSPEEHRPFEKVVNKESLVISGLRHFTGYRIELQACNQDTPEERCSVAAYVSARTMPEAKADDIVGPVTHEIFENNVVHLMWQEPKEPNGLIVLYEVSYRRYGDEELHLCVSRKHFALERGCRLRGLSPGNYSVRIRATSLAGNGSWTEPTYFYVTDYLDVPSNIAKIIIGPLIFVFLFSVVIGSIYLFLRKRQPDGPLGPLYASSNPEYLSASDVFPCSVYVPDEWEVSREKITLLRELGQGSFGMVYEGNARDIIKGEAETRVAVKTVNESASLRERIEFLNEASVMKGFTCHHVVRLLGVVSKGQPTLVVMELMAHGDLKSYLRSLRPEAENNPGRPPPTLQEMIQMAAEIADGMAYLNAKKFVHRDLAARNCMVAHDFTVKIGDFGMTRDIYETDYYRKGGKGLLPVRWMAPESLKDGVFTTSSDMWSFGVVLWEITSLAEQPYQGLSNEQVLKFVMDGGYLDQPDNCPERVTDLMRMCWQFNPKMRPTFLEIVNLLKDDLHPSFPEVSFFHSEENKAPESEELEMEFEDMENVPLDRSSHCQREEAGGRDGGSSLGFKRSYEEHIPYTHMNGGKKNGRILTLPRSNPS
Chain of Serine/threonine-protein kinase TAO1 (Homo sapiens) (Q7L7X3 whole entry): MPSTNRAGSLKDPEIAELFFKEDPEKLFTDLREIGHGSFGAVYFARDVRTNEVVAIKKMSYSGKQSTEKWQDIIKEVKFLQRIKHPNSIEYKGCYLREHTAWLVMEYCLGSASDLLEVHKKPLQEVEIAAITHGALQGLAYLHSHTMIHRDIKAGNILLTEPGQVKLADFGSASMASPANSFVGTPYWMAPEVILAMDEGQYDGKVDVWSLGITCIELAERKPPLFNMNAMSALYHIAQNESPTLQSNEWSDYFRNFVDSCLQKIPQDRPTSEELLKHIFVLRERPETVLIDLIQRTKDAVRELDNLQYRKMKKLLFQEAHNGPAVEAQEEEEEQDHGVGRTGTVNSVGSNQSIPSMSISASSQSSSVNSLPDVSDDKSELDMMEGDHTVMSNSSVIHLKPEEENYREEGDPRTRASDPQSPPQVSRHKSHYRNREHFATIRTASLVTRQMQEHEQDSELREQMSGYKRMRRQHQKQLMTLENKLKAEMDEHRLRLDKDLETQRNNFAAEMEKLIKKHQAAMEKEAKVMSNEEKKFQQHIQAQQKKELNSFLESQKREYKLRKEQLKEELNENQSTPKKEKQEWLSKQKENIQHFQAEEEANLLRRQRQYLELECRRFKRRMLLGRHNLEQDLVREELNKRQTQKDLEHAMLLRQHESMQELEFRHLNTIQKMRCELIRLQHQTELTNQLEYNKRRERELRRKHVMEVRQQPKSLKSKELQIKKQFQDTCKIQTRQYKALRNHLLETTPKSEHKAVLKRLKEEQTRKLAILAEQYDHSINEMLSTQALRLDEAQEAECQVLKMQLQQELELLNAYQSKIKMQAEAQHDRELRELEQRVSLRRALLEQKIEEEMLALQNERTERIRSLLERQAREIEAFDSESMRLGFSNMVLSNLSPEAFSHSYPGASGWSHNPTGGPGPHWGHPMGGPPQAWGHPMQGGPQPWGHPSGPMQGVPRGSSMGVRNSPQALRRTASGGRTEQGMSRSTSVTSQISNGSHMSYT
Chain of cGMP-dependent protein kinase 1 (Homo sapiens) (Q13976 whole entry): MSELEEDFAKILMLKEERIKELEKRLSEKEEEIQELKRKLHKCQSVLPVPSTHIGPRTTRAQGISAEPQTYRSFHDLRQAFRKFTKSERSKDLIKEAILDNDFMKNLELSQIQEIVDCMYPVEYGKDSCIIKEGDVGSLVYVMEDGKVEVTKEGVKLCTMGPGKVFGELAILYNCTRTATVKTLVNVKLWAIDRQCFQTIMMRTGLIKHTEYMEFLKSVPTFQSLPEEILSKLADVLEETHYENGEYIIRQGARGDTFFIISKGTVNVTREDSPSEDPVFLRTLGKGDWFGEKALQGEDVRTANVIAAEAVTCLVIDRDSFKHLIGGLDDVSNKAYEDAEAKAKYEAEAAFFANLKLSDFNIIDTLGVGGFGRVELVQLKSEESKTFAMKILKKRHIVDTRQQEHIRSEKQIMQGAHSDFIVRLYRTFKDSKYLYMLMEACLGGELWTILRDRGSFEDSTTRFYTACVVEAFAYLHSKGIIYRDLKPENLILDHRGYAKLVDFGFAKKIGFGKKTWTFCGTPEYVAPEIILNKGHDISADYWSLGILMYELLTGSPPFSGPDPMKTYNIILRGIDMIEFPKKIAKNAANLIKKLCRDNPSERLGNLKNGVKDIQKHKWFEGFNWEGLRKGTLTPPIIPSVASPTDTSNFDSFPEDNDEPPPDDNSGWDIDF

SMILES: CCCS(=O)(=O)Nc1cccc(Nc2ccc3ncn(C)c(=O)c3c2)c1C#N
- Activity [1]: 114%
- Activity [2]: 106%
- clearance [3]: 1.6 mL/min/kg
- Activity [4]: 116%
- Activity [5]: 117%
- Activity [6]: 114%
- AUC [7]: 483 µM·h
- Activity [8]: 109%
- Activity [9]: 108%
- Activity [10]: 86%
- Activity [11]: 106%
- IC50 [12]: 0.3 nM
- Activity [13]: 84%
- Activity [14]: 114%
- Activity [15]: 93%
- Activity [16]: 108%
- Activity [17]: 110%
- Activity [18]: 94.5%
- Activity [19]: 107%
- Activity [20]: 95.5%
- Activity [21]: 101%
- Activity [22]: 93.5%
- Activity [23]: 99.5%
- Activity [24]: 103%
- Activity [25]: 85.5%
- Activity [26]: 107%
- Activity [27]: 112%
- Activity [28]: 95%
- Activity [29]: 104%
- Activity [30]: 88.5%
- Activity [31]: 91.5%
- Activity [32]: 103%
- Activity [33]: 97%
- Activity [34]: 106%
- Activity [35]: 112%
- Activity [36]: 99.5%
- Activity [37]: 95.5%
- Activity [38]: 91.5%
- bioavailability [39]: 60%
- Activity [40]: 90.5%
